Among the test systems are HCC-2998 colon; HOP-92 NSCLC; K-562 leukemia; NCI/ADR-RES ovarian; NCI-H226 lung; COLO 205 colon; U251 CNS; RXF 393 renal; CAKI-1 renal; CCRF-CEM leukemia.
Common to all, as to assay: inhibition of tumour cell growth, NCI panel, 48 h

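Grown in 96-well plates, cells were treated for 48 hours with each compound at five concentrations. Insufficient inhibition: endpoint recorded as highest concentration tested. The concentration for 50% growth inhibition is given as GI50. The concentration for full growth arrest is given as TGI.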 Where only a bound is given, the exact number is not on record here.

Regarding `Cc1cc(N/N=C/c2nc(-c3ccc(Cl)cc3)oc2C)c2cc(Br)ccc2n1`, the GI50 in the assay with HCC-2998 colon is 3.58 µM; with HOP-92 NSCLC, 3.24 µM; with K-562 leukemia, 1.1 µM; in the assay with NCI/ADR-RES ovarian, 2.17 µM; with NCI-H226 lung, 17.4 µM; with COLO 205 colon it was 2.86 µM. Also, the GI50 in the assay on U251 CNS was 1.73 µM; in the assay with RXF 393 renal, 4.1 µM; in the assay with CAKI-1 renal, 2.04 µM. Besides, the TGI with HCC-2998 colon was determined as 12.5 µM; in the assay on HOP-92 NSCLC it was 16.4 µM; with K-562 leukemia, 3.61 µM; with NCI/ADR-RES ovarian, 4.94 µM; in the assay with NCI-H226 lung it was 50.4 µM; in the assay with COLO 205 colon, 10.6 µM. Also, the TGI was 3.29 µM with U251 CNS, 17.2 µM in the assay on RXF 393 renal and 4.71 µM in the assay with CAKI-1 renal.

As to `c1cc2c3c(c1)c1cc4c(cc1c[n+]3CC2)OCO4`, the TGI is 10.4 µM with HCC-2998 colon; 106 µM in the assay with HOP-92 NSCLC; 35.8 µM with CCRF-CEM leukemia; 32.3 µM in the assay with K-562 leukemia; more than 225 µM in the assay on NCI/ADR-RES ovarian; 4.69 µM in the assay with NCI-H226 lung. Moreover, the TGI with COLO 205 colon amounted to 19.9 µM; in the assay on U251 CNS, 18.8 µM; in the assay on RXF 393 renal, 32.5 µM; in the assay on CAKI-1 renal, 120 µM.

As to `c1ccc2c(c1)NCc1cc3ccccc3nc1O2`, the TGI in the assay on HCC-2998 colon, in the assay with HOP-92 NSCLC, in the assay with CCRF-CEM leukemia, with K-562 leukemia, in the assay on NCI/ADR-RES ovarian and in the assay on NCI-H226 lung was more than 100 µM each time. The TGI in the assay with COLO 205 colon, in the assay with U251 CNS, with RXF 393 renal and in the assay on CAKI-1 renal was more than 100 µM each time.

Turning to `CCOc1cc(/C=C/C(=O)C(C(=O)/C=C/c2ccc(OC(=O)CNc3nc4ccccc4[nH]3)c(OCC)c2)C(=O)CNc2nc3ccccc3[nH]2)ccc1OC(=O)CNc1nc2ccccc2[nH]1`, the GI50 in the assay with HCC-2998 colon is 1.69 µM; in the assay on HOP-92 NSCLC it was 1.4 µM; with CCRF-CEM leukemia, 1.14 µM; in the assay on K-562 leukemia, 1.44 µM; with NCI/ADR-RES ovarian, 3.39 µM; in the assay with NCI-H226 lung, 2.07 µM. The GI50 with COLO 205 colon was 2.08 µM; with U251 CNS, 1.94 µM; in the assay with RXF 393 renal it was 4.08 µM. For the same compound, the TGI is 3.22 µM in the assay with HCC-2998 colon; 4.26 µM in the assay on HOP-92 NSCLC; 3.16 µM in the assay on CCRF-CEM leukemia; 2.75 µM in the assay on K-562 leukemia; 74 µM with NCI/ADR-RES ovarian; 5.67 µM in the assay on NCI-H226 lung. Besides, the TGI in the assay with COLO 205 colon was 4.61 µM; in the assay with U251 CNS it was 4.34 µM; with RXF 393 renal, more than 100 µM.

Take `COc1ccc(C2=[S+]C(c3ccccc3)(c3ccccc3)c3ccccc32)cc1`: the TGI was more than 100 µM with HCC-2998 colon; 39.4 µM with HOP-92 NSCLC; 88.9 µM with CCRF-CEM leukemia; more than 100 µM with K-562 leukemia; more than 100 µM with NCI/ADR-RES ovarian; 31.3 µM with NCI-H226 lung. Besides, the TGI was 31.3 µM in the assay on COLO 205 colon, 45.3 µM in the assay on U251 CNS, 26 µM in the assay with RXF 393 renal and more than 100 µM with CAKI-1 renal.

For the compound `O=C(N/N=C\c1cccc2ccccc12)Nc1ccccc1`, the TGI with HOP-92 NSCLC, in the assay with CCRF-CEM leukemia, in the assay on K-562 leukemia, with NCI/ADR-RES ovarian, in the assay on NCI-H226 lung and with COLO 205 colon was more than 100 µM in each case. The TGI with U251 CNS, with RXF 393 renal and in the assay on CAKI-1 renal was more than 100 µM each time.

For the compound `C/C(=N\NC(=O)c1ccc(Cl)cc1)c1nc2ncccc2[nH]1`, the TGI is more than 100 µM in the assay on HCC-2998 colon; more than 100 µM with CCRF-CEM leukemia; more than 100 µM in the assay with K-562 leukemia; 50.1 µM with NCI/ADR-RES ovarian; 96.3 µM in the assay on COLO 205 colon; more than 100 µM in the assay on U251 CNS. Moreover, the TGI with RXF 393 renal is 55.4 µM; in the assay with CAKI-1 renal it was more than 100 µM.

Turning to `Cc1cn(-c2cccc(NC(=O)c3ccc(C)c(Nc4nccc(-c5cccnc5)n4)c3)c2)cn1`, the GI50 in the assay with HCC-2998 colon was 3.05 µM; in the assay on HOP-92 NSCLC, 1.18 µM; with CCRF-CEM leukemia, 1.23 µM; in the assay with K-562 leukemia, 1.47 µM; in the assay on NCI/ADR-RES ovarian it was 2.83 µM; in the assay with NCI-H226 lung, 1.59 µM. Further, the GI50 with COLO 205 colon is 2.09 µM; in the assay with U251 CNS, 1.69 µM; in the assay with RXF 393 renal it was 1.62 µM; in the assay on CAKI-1 renal it was 1.6 µM. Also, the TGI was 8.02 µM with HCC-2998 colon; 2.51 µM in the assay on HOP-92 NSCLC; 10.9 µM in the assay with CCRF-CEM leukemia; 4.17 µM in the assay on K-562 leukemia; 10.1 µM in the assay with NCI/ADR-RES ovarian; 3.32 µM with NCI-H226 lung. Further, the TGI was 3.65 µM in the assay with COLO 205 colon, 3.39 µM with U251 CNS, 3.03 µM in the assay on RXF 393 renal and 3.05 µM in the assay with CAKI-1 renal.

In the case of `CCOC(=O)/C=C/c1c(C)[nH]c(=O)[nH]c1=O`, the TGI in the assay on HCC-2998 colon was more than 250 µM; in the assay with HOP-92 NSCLC, more than 25 µM; with CCRF-CEM leukemia it was more than 250 µM; in the assay with K-562 leukemia, more than 250 µM; in the assay on NCI/ADR-RES ovarian it was more than 250 µM; in the assay on NCI-H226 lung, more than 250 µM. Further, the TGI in the assay on COLO 205 colon is more than 250 µM; with U251 CNS it was more than 250 µM; in the assay on RXF 393 renal, more than 250 µM; with CAKI-1 renal it was more than 234 µM.

Regarding `COc1cc(-c2ccc(N=Nc3ccc4c(S(=O)(=O)O)cc(S(=O)(=O)O)c(N)c4c3O)c(OC)c2)ccc1N=Nc1ccc2c(S(=O)(=O)O)cc(S(=O)(=O)O)c(N)c2c1O`, the TGI with HCC-2998 colon, with HOP-92 NSCLC, in the assay with CCRF-CEM leukemia, with K-562 leukemia, in the assay with NCI/ADR-RES ovarian and with NCI-H226 lung was more than 100 µM throughout. In addition, the TGI with COLO 205 colon, in the assay on U251 CNS and in the assay with RXF 393 renal was more than 100 µM in each case.

For `O=C1CCC[C@H]2O[C@@H](COC(=O)c3ccccc3)C[C@H]2O1`, the TGI in the assay on HOP-92 NSCLC, with CCRF-CEM leukemia, in the assay on K-562 leukemia, in the assay on NCI/ADR-RES ovarian, in the assay on NCI-H226 lung and with COLO 205 colon was more than 100 µM throughout. In addition, the TGI in the assay on U251 CNS and with CAKI-1 renal was more than 100 µM each time.

For `Cc1ccc(Cl)cc1N=NC(=O)NNc1cc(Cl)ccc1C`, the TGI was more than 100 µM with HCC-2998 colon; 35.8 µM in the assay with HOP-92 NSCLC; 54.4 µM in the assay with CCRF-CEM leukemia; more than 100 µM in the assay on K-562 leukemia; 63.9 µM in the assay on NCI/ADR-RES ovarian; 43.1 µM in the assay with NCI-H226 lung. Also, the TGI with COLO 205 colon turned out to be 41 µM; in the assay with U251 CNS it was 59.6 µM; in the assay on RXF 393 renal it was 72.7 µM; with CAKI-1 renal, 45.1 µM.

With `COc1cccc2c1C(=O)c1c(O)c3c(c(O)c1C2=O)C[C@@](O)(C(=O)COC(=O)c1ccccc1)C[C@@H]3OC1CC(N)C(O)C(C)O1` (some centres undefined), the GI50 is 0.421 µM in the assay on HCC-2998 colon; 0.0638 µM in the assay with HOP-92 NSCLC; 0.0427 µM with CCRF-CEM leukemia; 0.104 µM in the assay with K-562 leukemia; 1.44 µM in the assay on NCI/ADR-RES ovarian; 0.113 µM in the assay with U251 CNS. Moreover, the GI50 is 0.195 µM in the assay with RXF 393 renal and 0.701 µM in the assay on CAKI-1 renal. The TGI is 2.32 µM with HCC-2998 colon; 0.392 µM with HOP-92 NSCLC; 0.334 µM with CCRF-CEM leukemia; 0.327 µM in the assay with K-562 leukemia; 4.1 µM in the assay with NCI/ADR-RES ovarian; 0.273 µM in the assay with U251 CNS. For the same compound, the TGI in the assay on RXF 393 renal was 0.859 µM; in the assay on CAKI-1 renal, 2.11 µM.

On to `CCOC(=O)NC(Nc1cc(Cl)ccc1OC)(C(F)(F)F)C(F)(F)F`, for which the TGI in the assay on HCC-2998 colon, in the assay on HOP-92 NSCLC, in the assay on CCRF-CEM leukemia, in the assay with K-562 leukemia, with NCI-H226 lung and in the assay with U251 CNS was more than 100 µM each time. The TGI in the assay on RXF 393 renal and in the assay with CAKI-1 renal was more than 100 µM each time.

Source of the values: PubChem BioAssay (NCI).
